In patent US6737383B1, “Herbicidal oxadiazolidines” (priority 1999, dated 2004):

Tests used:
[1] = system: bamyardgrass; assay: Test B flood test barnyardgrass; assay type: in vivo, Echinochloa crus-galli
How it was run: (§1)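 Plants were grown to the 2-leaf stage before treatment with test chemical, then held in a greenhouse for twelve to sixteen days. Injury was visually rated against untreated controls on a 0–10 scale, where 0 is no effect and 10 is complete control.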

[2] = system: giant foxtail; assay: Test B pre/postemergence giant foxtail; assay type: in vivo, Setaria faberii
How it was run: (§2)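 Herbicidal effect was estimated by eye on a ten-point control scale after plants spent twelve to sixteen days in a greenhouse following soil or foliar treatment. Foliar sprays targeted plants at one to four leaves; all doses were formulated in a non-phytotoxic solvent with surfactant.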

[3] = system: morningglory; assay: Test B pre/postemergence morningglory; assay type: in vivo, Ipomoea hederacea
How it was run: as §2

[4] = system: corn; assay: Test B pre/postemergence corn; assay type: in vivo, Zea mays
How it was run: as §2

[5] = system: surinam grass; assay: Test B pre/postemergence surinam grass; assay type: in vivo, Brachiaria decumbens
How it was run: as §2

[6] = system: bedstraw; assay: Test B pre/postemergence bedstraw; assay type: in vivo, Galium aparine
How it was run: as §2

[7] = system: duck salad; assay: Test B flood test duck salad; assay type: in vivo, Heteranthera limosa
How it was run: as §1

[8] = system: cocklebur; assay: Test B pre/postemergence cocklebur; assay type: in vivo, Xanthium strumarium
How it was run: as §2

[9] = system: velvetleaf; assay: Test B pre/postemergence velvetleaf; assay type: in vivo, Abutilon theophrasti
How it was run: as §2

[10] = system: purple nutsedge; assay: Test B pre/postemergence purple nutsedge; assay type: in vivo, Cyperus rotundus
How it was run: as §2

[11] = system: pigweed; assay: Test B pre/postemergence pigweed; assay type: in vivo, Amaranthus retroflexus
How it was run: as §2

[12] = system: sugar beet; assay: Test B pre/postemergence sugar beet; assay type: in vivo, Beta vulgaris
How it was run: as §2

[13] = system: rice; assay: Test B flood test rice; assay type: in vivo, Oryza sativa
How it was run: as §1

[14] = system: blackgrass; assay: Test B pre/postemergence blackgrass; assay type: in vivo, Alopecurus myosuroides
How it was run: as §2

[15] = system: rape; assay: Test B pre/postemergence rape; assay type: in vivo, Brassica napus
How it was run: as §2

[16] = Postemergence, Rate 62 g/ha, scale 0 to 10, 0 is no effect, 10 is complete control
[17] = Rate 125 g/ha, Postemergence section (flood test species), scale 0 to 10, 0 no effect, 10 complete control
[18] = Rate 500 g/ha, listed under Postemergence (flood test species), scale 0 to 10, 0 no effect, 10 complete control
[19] = flood test, listed under Postemergence, Rate 250 g/ha, scale 0 to 10, 0 no effect, 10 complete control
[20] = Postemergence, Rate 250 g/ha, scale 0 to 10, 0 no effect, 10 complete control
[21] = Preemergence, Rate 62 g/ha, scale 0 to 10 (0 no effect, 10 complete control)
[22] = Preemergence, Rate 125 g/ha, scale 0 to 10 (0 no effect, 10 complete control)
[23] = Preemergence, Rate 250 g/ha, scale of 0 to 10 where 0 is no effect and 10 is complete control
[24] = Preemergence, Rate 500 g/ha, scale 0 (no effect) to 10 (complete control)
[25] = Rate 125 g/ha, Postemergence, scale 0 to 10, 0 no effect, 10 complete control
[26] = Rate 500 g/ha, Postemergence, scale 0 to 10, 0 no effect, 10 complete control

For `Cc1ccccc1-n1c(=O)on(C(=O)N(c2cc(F)cc(F)c2)C(C)C)c1=O` [Compound 67], the “Barnyardgrass plant response rating” value [1, 16] was 0, the “Barnyardgrass plant response rating” value [1, 17] was 0 and the “Barnyardgrass plant response rating” value [1, 18] was 0. For the same compound, the “Barnyardgrass plant response rating” value [1, 19] was 0, the “Giant foxtail plant response rating” value [2, 16] was 0 and the “Giant foxtail plant response rating” value [2, 20] was 0. The “Giant foxtail plant response rating” value [2, 21] was 3, the “Plant response rating, Giant foxtail” value [2, 22] was 7 and the “Plant response rating, Giant foxtail” value [2, 23] was 8. The “Giant foxtail plant response rating” value [2, 24] was 8, the “Giant foxtail plant response rating” value [2, 25] was 0 and the “Giant foxtail plant response rating” value [2, 26] was 0. The “Morningglory plant response rating” value [3, 16] was 0, the “Morningglory plant response rating” value [3, 20] was 2 and the “Morningglory plant response rating” value [3, 21] was 0. The “Plant response rating, Morningglory” value [3, 22] was 0, the “Plant response rating, Morningglory” value [3, 23] was 0 and the “Morningglory plant response rating” value [3, 24] was 0. For the same compound, the “Morningglory plant response rating” value [3, 25] was 2, the “Morningglory plant response rating” value [3, 26] was 6 and the “Corn plant response rating” value [4, 16] was 0. For the same compound, the “Corn plant response rating” value [4, 20] was 0, the “Corn plant response rating” value [4, 21] was 0 and the “Plant response rating, Corn” value [4, 22] was 0. For the same compound, the “Plant response rating, Corn” value [4, 23] was 0, the “Corn plant response rating” value [4, 24] was 0 and the “Corn plant response rating” value [4, 25] was 0. For the same compound, the “Corn plant response rating” value [4, 26] was 0, the “B. signalgrass plant response rating” value [5, 16] was 0 and the “B. signalgrass plant response rating” value [5, 20] was 0. The “B. signalgrass plant response rating” value [5, 21] was 0, the “Plant response rating, B. signalgrass” value [5, 22] was 0 and the “Plant response rating, B. signalgrass” value [5, 23] was 0. The “B. signalgrass plant response rating” value [5, 24] was 2, the “B. signalgrass plant response rating” value [5, 25] was 0 and the “B. signalgrass plant response rating” value ([5]; Rate 500 g/ha, Postemergence, scale of 0 to 10 where 0 is no effect and 10 is complete control) was 0. The “Bedstraw plant response rating” value [6, 16] was 0, the “Bedstraw plant response rating” value [6, 20] was 7 and the “Bedstraw plant response rating” value [6, 21] was 0. The “Plant response rating, Bedstraw” value [6, 22] was 0, the “Plant response rating, Bedstraw” value [6, 23] was 0 and the “Bedstraw plant response rating” value [6, 24] was 0. For the same compound, the “Bedstraw plant response rating” value [6, 25] was 5, the “Bedstraw plant response rating” value [6, 26] was 8 and the “Ducksalad plant response rating” value [7, 16] was 0. The “Ducksalad plant response rating” value [7, 17] was 0, the “Ducksalad plant response rating” value [7, 18] was 0 and the “Ducksalad plant response rating” value [7, 19] was 0. The “Cocklebur plant response rating” value [8, 16] was 0, the “Cocklebur plant response rating” value [8, 20] was 1 and the “Cocklebur plant response rating” value [8, 21] was 0. For the same compound, the “Plant response rating, Cocklebur” value [8, 22] was 0, the “Plant response rating, Cocklebur” value [8, 23] was 0 and the “Cocklebur plant response rating” value [8, 24] was 0. For the same compound, the “Cocklebur plant response rating” value [8, 25] was 0, the “Cocklebur plant response rating” value [8, 26] was 1 and the “Velvetleaf plant response rating” value [9, 16] was 0. For the same compound, the “Velvetleaf plant response rating” value [9, 20] was 0, the “Velvetleaf plant response rating” value [9, 21] was 0 and the “Plant response rating, Velvetleaf” value [9, 22] was 0. For the same compound, the “Plant response rating, Velvetleaf” value [9, 23] was 0, the “Velvetleaf plant response rating” value [9, 24] was 0 and the “Velvetleaf plant response rating” value [9, 25] was 0. The “Velvetleaf plant response rating” value [9, 26] was 0, the “Nutsedge plant response rating” value [10, 16] was 0 and the “Nutsedge plant response rating” value [10, 20] was 0. The “Nutsedge plant response rating” value [10, 21] was 0, the “Plant response rating, Nutsedge” value [10, 22] was 0 and the “Plant response rating, Nutsedge” value [10, 23] was 0. The “Nutsedge plant response rating” value [10, 24] was 0, the “Nutsedge plant response rating” value [10, 25] was 0 and the “Nutsedge plant response rating” value [10, 26] was 0. The “Redroot pigweed plant response rating” value [11, 16] was 0, the “Redroot pigweed plant response rating” value [11, 20] was 0 and the “Redroot pigweed plant response rating” value [11, 21] was 4. For the same compound, the “Plant response rating, Redroot pigweed” value [11, 22] was 4, the “Plant response rating, Redroot pigweed” value [11, 23] was 9 and the “Redroot pigweed plant response rating” value [11, 24] was 10. The “Redroot pigweed plant response rating” value [11, 25] was 0, the “Redroot pigweed plant response rating” value [11, 26] was 4 and the “Sugarbeets plant response rating” value [12, 16] was 0. For the same compound, the “Sugarbeets plant response rating” value [12, 20] was 0, the “Sugarbeets plant response rating” value [12, 21] was 0 and the “Plant response rating, Sugarbeets” value [12, 22] was 0. The “Plant response rating, Sugarbeets” value [12, 23] was 0, the “Sugarbeets plant response rating” value [12, 24] was 3 and the “Sugarbeets plant response rating” value [12, 25] was 0. For the same compound, the “Sugarbeets plant response rating” value [12, 26] was 2, the “Rice plant response rating” value [13, 16] was 0 and the “Rice plant response rating” value [13, 17] was 0. The “Rice plant response rating” value [13, 18] was 0, the “Rice plant response rating” value [13, 19] was 0 and the “Blackgrass plant response rating” value [14, 16] was 0. For the same compound, the “Blackgrass plant response rating” value [14, 20] was 0, the “Blackgrass plant response rating” value [14, 21] was 0 and the “Plant response rating, Blackgrass” value [14, 22] was 0. The “Plant response rating, Blackgrass” value [14, 23] was 2, the “Blackgrass plant response rating” value [14, 24] was 2 and the “Blackgrass plant response rating” value [14, 25] was 0. The “Blackgrass plant response rating” value [14, 26] was 0, the “Rape plant response rating” value [15, 16] was 0 and the “Rape plant response rating” value [15, 20] was 0. The “Rape plant response rating” value [15, 21] was 0, the “Plant response rating, Rape” value [15, 22] was 0 and the “Plant response rating, Rape” value [15, 23] was 0. The “Rape plant response rating” value [15, 24] was 0, the “Rape plant response rating” value [15, 25] was 0 and the “Rape plant response rating” value [15, 26] was 2.
